Data as given in patent US20060235076A1, “Medicinal composition for treating infection with drug-resistant staphylococcus aureus” (priority 2003, published 2006).

System: MRSA COL and MRSA Strain No. 5
Assay: Potentiating effect of various gallates for antibacterial activity of oxacillin (MIC by broth microdilution method and FIC)
Format: cell-based, Staphylococcus aureus
Settings: for effect of the combination use with oxacillin by FIC values: COL Strain and Strain No. 5; for FIC value: combination with oxacillin
Description: According to the broth microdilution method defined by Japan Society of Chemotherapy, MIC was determined. CAMHA was prepared by adding 50 mg/l of Ca-ion, 25 mg/l of Mg-ion, and 2% of NaCl to MHB (Mueller-Hinton Broth), and it was used as a medium for use in the measurement of sensitivity. In 96-well microplates 100 μl of the medium for use in the measurement of sensitivity containing drugs was dispensed. The bacterial liquid was incubated at 37° C. overnight, diluted with saline and added to the plate so that the final concentration of the bacteria was 5×10^5 CFU/well. […] FIC (fractional inhibitory concentration) was calculated from the result and the potency of the effect of the combination use was evaluated.

Row | SMILES | effect of the combination use with oxacillin by FIC values | FIC value (MRSA COL) | FIC value (MRSA Strain No. 5)
1 | O=C(O[C@@H]1Cc2c(O)cc(O)cc2O[C@@H]1c1ccc(O)c(O)c1)c1cc(O)c(O)c(O)c1 [Epicatechin gallate, epicatechin gallate] | more potent effects of the combination use | 0.127 | 0.188
2 | O=C(O[C@@H]1Cc2c(O)cc(O)cc2O[C@H]1c1cc(O)c(O)c(O)c1)c1cc(O)c(O)c(O)c1 [Gallocatechin gallate, gallocatechin gallate] | more potent effects of the combination use | 0.281 | 0.188
